Laboratory results reported in paper PMC12164071, “Lysine targeting covalent inhibitors of malarial kinase PfCLK3” (RSC Medicinal Chemistry, 2025).
Where “and” joins values, the source holds several entries; their conditions need not be identical. Identical values can stand only once. Entries after “also recorded” stand apart in the source; their conditions may differ. Like-named read-outs stand apart in the source and are kept apart here.

Key:
[1] = tested on: PfCLK3 kinase domain (amino acid residues 334–699); test: Intact protein LC-MS for covalent adduct formation; assay type: binding, Plasmodium falciparum; conditions: for covalent adduct formation with PfCLK3 kinase domain: pH 7.4, 1:5 protein to compound ratio
Method: All compounds were then evaluated for covalent binding with PfCLK3 kinase domain (amino acid residues 334–699) using intact protein LC-MS (Fig. 3). Compounds were incubated at pH 7.4 in a 1 : 5 protein to compound ratio and analysed for covalent adduct formation using ESI TOF. […] Compounds 8 and 9 yielded a fully modified species at 43 957 Da, which can be attributed to the mass of the apo protein + the mass of the pyridinium product adduct. A minor mass (20–25%) of 44 378 Da was also detected, consistent with a doubly modified PfCLK3 kinase domain. This implies that cross reactivity with non-catalytic lysine residues is possible using the ethynyl benzaldehyde functionality, although a minor product. […]
dialyzing the protein into a final buffer containing 20 mM HEPES pH 7.4, 150 mM NaCl, 1 […]
PfCLK3 kinase domain (residues 334–699 with a C-terminal TEV cleavage sequence and His6-tag) was cloned into pFastBac vector and expressed and purified from Sf21 insect cells.
Cells were infected using P2 BIICs at an MOI of 0.2 and left to express for 72 h. Harvested cells were lysed and centrifuged before purifying using IMAC and SEC in a final buffer containing 20 mM HEPES pH 7.4, 150 mM NaCl, 1 mM TCEP, and 1 mM MgCl2.
Protein Mass Spectrometry
For intact protein mass spectrometry, compounds were incubated with a 5-fold excess of compound in buffer containing 20 mM HEPES pH 7.4, 150 mM NaCl, 1 mM TCEP, and 1 mM MgCl 2. 5 μL of kinase domain (1 mg/mL) was added to 25 μL of buffer before 0.12 μL of compound in a 10 mM DMSO stock was added to start the incubation. Samples were incubated at room temperature for 4 hours before 10 μL alliquots were analysed by LC-MS.
Intact protein LC-MS experiments were performed on a Synapt G2 Q-ToF instrument equipped with electrospray ionisation (Waters Corp., Manchester, UK). LC separation was achieved using an Acquity UPLC equipped with a reverse phase C4 Aeris Widepore 50 × 2.1 mm HPLC column (Phenomenex, CA, USA) and a gradient of 5–95% acetonitrile (0.1% formic acid) over 10 minutes was employed. Data analysis was performed using MassLynx v4.1 and deconvolution was performed using MaxEnt. […]

[2] = tested on: 3D7 Plasmodium falciparum parasites; test: Ex vivo P. falciparum (3D7) inhibition assay; assay type: cell-based; conditions: 3D7, Pf3D7 parasites, 72 hours, errors SD
Method: Compounds 4, 5, 8 and 9 were then assessed against 3D7 Plasmodium falciparum parasites (Fig. 6). […]
P. falciparum (3D7) culture and synchronisation.
P. falciparum cultures were maintained in RPMI-1640 media (Invitrogen) supplemented with 0.2% sodium bicarbonate, 0.5% Albumax II, 2.0 mM L-glutamine (Sigma) and 10 mg/L gentamycin. For continuous culture, the parasites were maintained at 4% haematocrit in human erythrocytes from 0+ blood donors and between 0.5 - 3% parasitaemia in an incubator at 37 °C, 5% carbon dioxide (CO 2), 5% oxygen (O 2) and 90% nitrogen (N 2). To obtain highly synchronous ring stage parasites for assays, cultures were double synchronised using Percoll and Sorbitol synchronisation. First, highly segmented schizonts were enriched by centrifugation on a 70% Percoll (GE Healthcare) cushion gradient. The Schizont pellet was collected and washed twice before fresh erythrocytes were added to a final haematocrit of 4%, and incubated for about 1-2 hours shaking continuously to allow merozoites egress and re-invasion of new erythrocytes. Residual schizonts were then removed by a second Percoll purification followed by treating the ring pellet with sorbitol to generate highly synchronous 1-2 hours old ring-stage parasites.
Ex vivo P. Falciparum (3D7) inhibition assay.
To determine the IC 50 of the molecules in parasites (P. falciparum 3D7) ex vivo, the molecules were diluted 1 in 3 from a starting concentration of 100 μM for 12 dilution points in triplicate. 50 μL of freshly diluted drugs, at twice the required final concentrations were aliquoted into black 96-well plates. To the compound plates, 50 μL of parasites prepared at 8% haematocrit at a parasitaemia (0.3 - 0.5%) were added and mixed by pipetting up and down several times giving a final culture volume of 100 μL at the required compound concentration (top concentration of 100 μM) and 4% haematocrit. To the ‘no compound’ control, growth media was added and uninfected erythrocytes were included on the plate as blank. The outer wells were filled with media to reduce evaporation from the experimental wells and the plates incubated for 72 hours (±2 hours) to allow the parasites sufficient time to re-invade before they are collected and frozen. For cellular washout studies, compound media was exchanged for compound-free media after 6 hours, and the parasites incubated for a […]

[3] = pH 7.4, 1:5 protein to compound, 4 hours room temperature, compound 4 with C-terminal His-tag construct
[4] = N ≥ 3, read-out: pEC50 (3D7) (converted)

`C#Cc1ccc(-c2c[nH]c3ncc(-c4cc(CN(CC)CC)ccc4OC)cc23)cc1C=O` [Compound 9] was tested, and the “doubly modified PfCLK3 kinase domain, minor mass abundance” value ([1]; 44 378 Da species) was 20–25% and ~20%, the “covalent adduct formation with PfCLK3 kinase domain” value [1] was “showed covalent adduct formation; also recorded: formed a covalent adduct with PfCLK3” and the “Relative Ratio, assignment holo (doubly modified)” value ([1]; pH 7.4, 1:5 protein to compound, 4 hours room temperature) was 20. For the same compound, the “Relative Ratio, assignment holo (singly modified)” value [1, 3] was 80, the EC50 ([2]; N ≥ 3, read-out: EC50 (3D7)) was 4.35 ± 0.5 µM and the EC50 [2, 4] was 4.37 µM.

`CCN(CC)Cc1ccc(OC)c(-c2cc3c(-c4ccc(O)c(C=O)c4)ccnc3[nH]2)c1` [Compound 4] was tested, and the “partial covalent bond formation, modification” value ([1]; imine adduct) was 32–60%, the “covalent adduct formation with PfCLK3 kinase domain” value [1] was “showed covalent adduct formation; also recorded: formed a covalent adduct with PfCLK3” and the “Relative Ratio, assignment apo” value [1, 3] was 40. The “Relative Ratio, assignment holo (singly modified)” value [1, 3] was 60, the EC50 ([2]; N ≥ 3, read-out: EC50 (3D7)) was 6.35 ± 2.31 µM and the EC50 [2, 4] was 6.31 µM.
